# Laboratory results: US5852210A, “Cinnamic acid derivatives” (G. D. Searle & Co., priority 1997, dated 1998)
# Where a name gives a salt, the structure may show the parent alone.
# Legend:
# [1] = target: T1, Human vitronectin receptor (αv β3) (Homo sapiens, UniProt P05106+P06756); assay: Vitronectin adhesion assay (solid phase receptor assay, αvβ3); assay type: binding; settings: inhibition of binding of biotinylated human vitronectin (1 nM) to purified receptor; Table I; read-out: AvB3 IC50
# T1 construct: Human vitronectin receptor (αv β3) was purified from human placenta; from tissue; host or cells: human placenta
# T1 sequence (P06756 31-889 limits assumed): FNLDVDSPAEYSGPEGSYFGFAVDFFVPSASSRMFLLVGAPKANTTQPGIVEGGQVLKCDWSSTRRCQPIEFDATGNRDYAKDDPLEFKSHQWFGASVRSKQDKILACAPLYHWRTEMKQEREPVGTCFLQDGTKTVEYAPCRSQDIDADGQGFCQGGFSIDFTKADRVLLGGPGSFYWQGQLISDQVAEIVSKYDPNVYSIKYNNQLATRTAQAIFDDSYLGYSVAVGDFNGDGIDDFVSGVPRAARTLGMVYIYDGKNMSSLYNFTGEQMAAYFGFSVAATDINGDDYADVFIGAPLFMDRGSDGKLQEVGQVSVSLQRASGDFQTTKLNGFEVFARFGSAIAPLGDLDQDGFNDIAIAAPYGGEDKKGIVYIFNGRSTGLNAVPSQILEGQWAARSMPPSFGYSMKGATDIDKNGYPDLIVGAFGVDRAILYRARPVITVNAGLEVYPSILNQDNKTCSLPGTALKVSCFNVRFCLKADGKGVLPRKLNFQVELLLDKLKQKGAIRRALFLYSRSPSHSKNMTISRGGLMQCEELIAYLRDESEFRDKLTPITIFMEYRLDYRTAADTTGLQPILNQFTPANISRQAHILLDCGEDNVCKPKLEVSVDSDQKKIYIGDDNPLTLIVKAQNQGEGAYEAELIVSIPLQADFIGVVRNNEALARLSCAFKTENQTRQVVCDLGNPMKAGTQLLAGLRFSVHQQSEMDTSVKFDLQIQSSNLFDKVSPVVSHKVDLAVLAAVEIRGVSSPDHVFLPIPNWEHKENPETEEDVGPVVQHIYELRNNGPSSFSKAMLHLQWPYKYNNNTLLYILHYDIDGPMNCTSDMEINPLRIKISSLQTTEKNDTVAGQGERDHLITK
# T1 sequence (P06756 891-1048 limits assumed): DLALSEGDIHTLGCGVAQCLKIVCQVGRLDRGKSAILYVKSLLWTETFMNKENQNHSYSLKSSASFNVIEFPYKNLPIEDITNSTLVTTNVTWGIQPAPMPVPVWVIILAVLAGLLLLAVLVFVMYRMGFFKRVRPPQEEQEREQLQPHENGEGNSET
# T1 sequence (P05106 27-788): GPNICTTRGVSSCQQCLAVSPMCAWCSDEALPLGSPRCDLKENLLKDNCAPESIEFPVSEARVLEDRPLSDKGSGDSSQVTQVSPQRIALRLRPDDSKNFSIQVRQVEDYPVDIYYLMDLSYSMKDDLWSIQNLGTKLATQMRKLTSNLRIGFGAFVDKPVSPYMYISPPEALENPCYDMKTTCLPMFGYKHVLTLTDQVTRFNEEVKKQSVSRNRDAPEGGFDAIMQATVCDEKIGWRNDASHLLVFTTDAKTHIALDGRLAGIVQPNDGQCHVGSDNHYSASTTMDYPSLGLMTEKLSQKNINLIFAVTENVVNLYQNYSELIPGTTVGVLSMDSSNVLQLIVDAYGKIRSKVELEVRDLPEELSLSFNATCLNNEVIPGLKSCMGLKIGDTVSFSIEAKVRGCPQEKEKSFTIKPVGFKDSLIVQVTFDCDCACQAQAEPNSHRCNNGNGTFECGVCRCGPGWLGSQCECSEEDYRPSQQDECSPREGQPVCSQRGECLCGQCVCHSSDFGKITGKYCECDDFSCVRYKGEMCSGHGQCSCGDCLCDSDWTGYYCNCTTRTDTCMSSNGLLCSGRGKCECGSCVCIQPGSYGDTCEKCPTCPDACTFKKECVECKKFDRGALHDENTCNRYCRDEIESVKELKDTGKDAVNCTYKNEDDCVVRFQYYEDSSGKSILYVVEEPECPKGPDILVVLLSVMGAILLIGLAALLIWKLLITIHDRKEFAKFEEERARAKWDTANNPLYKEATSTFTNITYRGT
# Method: (§1) The activity of the compounds of the present invention was tested in the following assays.
# Human vitronectin receptor (αv β3) was purified from human placenta as previously described [Pytela et al., Methods in Enzymology, 144:475-489 (1987)]. Human vitronectin was purified from fresh frozen plasma as previously described [Yatohgo et al., Cell Structure and Function, 13:281-292 (1988)]. Biotinylated human vitronectin was prepared by coupling NHS-biotin from Pierce Chemical Company (Rockford, Ill.) to purified vitronectin as previously described [Charo et al., J. Biol. Chem., 266(3):1415-1421 (1991)]. Assay buffer, OPD substrate tablets, and RIA grade BSA were obtained from Sigma (St. Louis, Mo.). Anti-biotin antibody was obtained from Calbiochem (La Jolla, Calif.). Linbro microtiter plates were obtained from Flow Labs (McLean, Va.). ADP reagent was obtained from Sigma (St. Louis, Mo.).
# (§2) Solid Phase Receptor Assays
# This assay was essentially the same as previously reported [Niiya et al., Blood, 70:475-483 (1987)]. The purified human vitronectin receptor (αv β3) was diluted from stock solutions to […] in Tris-buffered saline containing 1.0 mM Ca^++, Mg^++, and Mn^++, pH 7.4 (TBS^+++). The diluted receptor was immediately transferred to Linbro microtiter plates at 100 μL/well (100 ng receptor/well). The plates were sealed and incubated overnight at 4° C. to allow the receptor to bind to the wells. All remaining steps were at room temperature. The assay plates were emptied and 200 μL, of 1% RIA grade BSA in TBS^+++ (TBS^+++ /BSA) were added to block exposed plastic surfaces. Following a 2 hour incubation, the assay plates were washed with TBS^+++ using a 96 well plate washer. Logarithmic serial dilution of the test compound and controls were made starting at a stock concentration of 2 mM and using 2 nM biotinylated vitronectin in TBS^+++ /BSA as the diluent. This premixing of labeled ligand with test (or control) ligand, and subsequent transfer of 50 μL aliquots to the assay plate was carried out with a CETUS Propette robot; the final concentration of the labeled ligand was 1 nM and the highest concentration of test compound was 1.0×10^-4 M. The competition occurred for two hours after which all wells were washed with a plate washer as before. Affinity purified horseradish peroxidase labeled goat anti-biotin antibody was diluted 1:3000 in TBS^+++ /BSA and 125 μL were added to each well. After 30 minutes, the plates were washed and incubated with OPD/H2 O2 substrate in 100 mM/L Citrate buffer, pH 5.0. The plate was read with a microtiter plate reader at a wavelength of 450 nm and when the maximum-binding control wells reached an absorbance of about 1.0, the final A450 were recorded for analysis. The data were analyzed using a macro written for use with the EXCEL™ spreadsheet program. The mean, standard deviation, and % CV were determined for duplicate concentrations. The mean A450 values were normalized to the mean of four maximum-binding controls (no competitor added) (B-MAX). The normalized values were subjected to a four parameter curve fit algorithm [Rodbard et al., Int.
# [2] = target: T2, Human fibrinogen receptor (αIIb β3) (Homo sapiens, UniProt P05106+P08514); assay: Purified IIb/IIIa receptor assay (solid phase receptor assay); settings: inhibition of binding of biotinylated human vitronectin (1 nM) to purified receptor; Table I
# T2 construct: Human fibrinogen receptor (αIIb β3) was purified from outdated platelets; from tissue; host or cells: human outdated platelets
# T2 sequence (P08514 32-887 limits assumed): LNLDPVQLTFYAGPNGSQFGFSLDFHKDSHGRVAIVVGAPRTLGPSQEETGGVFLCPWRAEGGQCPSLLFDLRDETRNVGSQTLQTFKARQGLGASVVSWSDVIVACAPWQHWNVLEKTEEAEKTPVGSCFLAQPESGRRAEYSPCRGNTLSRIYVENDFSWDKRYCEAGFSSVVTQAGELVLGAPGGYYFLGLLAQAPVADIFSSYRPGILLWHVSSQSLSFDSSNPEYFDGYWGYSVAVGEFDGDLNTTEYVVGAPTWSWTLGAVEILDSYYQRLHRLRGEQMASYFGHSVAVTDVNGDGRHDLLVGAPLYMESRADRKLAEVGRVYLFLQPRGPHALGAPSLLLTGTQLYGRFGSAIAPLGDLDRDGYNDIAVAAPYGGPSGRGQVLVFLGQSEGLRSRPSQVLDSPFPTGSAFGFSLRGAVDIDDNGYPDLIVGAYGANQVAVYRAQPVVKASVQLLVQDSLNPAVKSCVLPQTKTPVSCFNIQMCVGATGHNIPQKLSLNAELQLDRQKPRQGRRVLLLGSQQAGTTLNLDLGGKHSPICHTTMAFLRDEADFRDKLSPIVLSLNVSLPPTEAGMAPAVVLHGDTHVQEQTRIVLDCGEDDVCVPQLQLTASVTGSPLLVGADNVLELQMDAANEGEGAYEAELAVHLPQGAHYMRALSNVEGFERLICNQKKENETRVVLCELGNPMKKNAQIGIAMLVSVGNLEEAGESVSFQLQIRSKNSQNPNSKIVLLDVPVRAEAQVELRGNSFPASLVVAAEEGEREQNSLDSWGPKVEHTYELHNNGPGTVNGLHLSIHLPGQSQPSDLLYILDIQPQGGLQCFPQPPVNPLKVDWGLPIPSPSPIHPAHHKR
# T2 sequence (P08514 891-1039 limits assumed): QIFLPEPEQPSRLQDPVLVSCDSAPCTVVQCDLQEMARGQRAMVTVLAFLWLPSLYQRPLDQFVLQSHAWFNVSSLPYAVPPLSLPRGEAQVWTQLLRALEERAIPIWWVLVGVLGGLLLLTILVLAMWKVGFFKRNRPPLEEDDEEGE
# T2 sequence (P05106 27-788): as the sequence (P05106 27-788) above
# Method: as §1
# Human fibrinogen receptor (αIIb β3) was purified from outdated platelets. (Pytela, R., Pierschbacher, M. D., Argraves, S., Suzuki, S., and Rouslahti, E. "Arginine-Glycine-Aspartic acid adhesion receptors", Methods in Enzymology 144(1987):475-489.) Human vitronectin was purified from fresh frozen plasma as described in Yatohgo, T., Izumi, M., Kashiwagi, H., and Hayashi, M., "Novel purification of vitronectin from human plasma by heparin affinity chromatography," Cell Structure and Function 13(1988):281-292. Biotinylated human vitronectin was prepared by coupling NHS-biotin from Pierce Chemical Company (Rockford, Ill.) to purified vitronectin as previously described. (Charo, I. F., Nannizzi, L., Phillips, D. R., Hsu, M. A., Scarborough, R. M., "Inhibition of fibrinogen binding to GP IIb/IIIa by a GP IIIa peptide", J. Biol. Chem. 266(3) (1991): 1415-1421.) Assay buffer, OPD substrate tablets, and RIA grade BSA were obtained from Sigma (St. Louis, Mo.). Anti-biotin antibody was obtained from Calbiochem (La Jolla, Calif.). Linbro microtiter plates were obtained from Flow Labs (McLean, Va.). ADP reagent was obtained from Sigma (St. Louis, Mo.).
# as §2
# This assay is essentially the same reported in Niiya, K., Hodson, E., Bader, R., Byers-Ward, V. Koziol, J. A., Plow, E. F. and Ruggeri, Z. M., "Increased surface expression of the membrane glycoprotein IIb/IIIa complex induced by platelet activation: Relationships to the binding of fibrinogen and platelet aggregation", Blood 70 (1987):475-483. The purified human fibrinogen receptor (αIIb β3) was diluted from stock solutions to 1.0 μg/mL in Tris-buffered saline containing 1.0 mM Ca^++, Mg^++, and Mn^++, pH 7.4 (TBS^+++). The diluted receptor was immediately transferred to Linbro microtiter plates at 100 μL/well (100 ng receptor/well). The plates were sealed and incubated overnight at 4° C. to allow the receptor to bind to the wells. All remaining steps were at room temperature. The assay plates were emptied and 200 μL of 1% RIA grade BSA in TBS^+++ (TBS^+++ /BSA) were added to block exposed plastic surfaces. Following a 2 hour incubation, the assay plates were washed with TBS^+++ using a 96 well plate washer. Logarithmic serial dilution of the test compound and controls were made starting at a stock concentration of 2 mM and using 2 nM biotinylated vitronectin in TBS^+++ /BSA as the diluent. This premixing of labeled ligand with test (or control) ligand, and subsequent transfer of 50 μL aliquots to the assay plate was carried out with a CETUS Propette robot; the final concentration of the labeled ligand was 1 nM and the highest concentration of test compound was 1.0×10^-4 M. The competition occurred for two hours after which all wells were washed with a plate washer as before. Affinity purified horseradish peroxidase labeled goat anti-biotin antibody was diluted 1:3000 in TBS^+++ /BSA and 125 μL were added to each well. After 30 minutes, the plates were washed and incubated with […]/H2 O2 substrate in 100 mM/L citrate buffer, pH 5.0. The plate was read with a microtiter plate reader at a wavelength of 450 nm and when the maximum-binding control wells reached an absorbance of about 1.0, the final A450 were recorded for analysis. The data were analyzed using a macro written for use with the EXCEL™ spreadsheet program. The mean, standard deviation, and % CV were determined for duplicate concentrations. The mean A450 values were normalized to the mean of four maximum-binding controls (no competitor added) (B-MAX). The normalized values were subjected to a four parameter curve fit algorithm, [Robard et al., Int.
Compound,IC50 [1] [nM],IC50 [2] [nM]
"N=C(N)Nc1cccc(C(=O)Nc2ccc(/C=C/C(=O)O)c(/C=C/C(=O)O)c2)c1 [Example 42, 3-[4-[[[3-[(aminoiminomethyl)amino]phenyl]carbonyl]amino]-2-(2-carboxyethenyl)phenyl]propenoic acid, trifluoroacetate salt]",7.6,15.9
"N#Cc1cc(NC(=O)c2cccc(NC(=N)N)c2)ccc1/C=C/C(=O)O [Example 44, 3-[4-[[[3-[(aminoiminomethyl)amino]phenyl]carbonyl]amino]-2-cyanophenyl]propenoic acid, trifluoroacetate salt]",30.2,36.2
"CNC(=O)c1cc(NC(=O)c2cccc(NC3=NCCCN3)c2)ccc1/C=C/C(=O)O [Example 45, 3-[2-[(methylamino)carbonyl]-4-[[[3-[(1,4,5,6-tetrahydropyrimidin-2-yl)amino]phenyl]carbonyl]amino]phenyl]propenoic acid, bis(trifluoroacetate) salt]",6.7,759
"CCOC(=O)Nc1cc(NC(=O)c2cccc(NC3=NCCCN3)c2)ccc1/C=C/C(=O)O [Example 46, 3-[2-[(ethoxycarbonyl)amino]-4-[[[3-[(1,4,5,6-tetrahydropyrimidin-2-yl)amino]phenyl]carbonyl]amino]phenyl]propenoic acid, trifluoroacetate salt]",7.19,2600
"O=C(O)/C=C/c1ccc(NC(=O)c2cccc(NC3=NCCCN3)c2)cc1 [Example 49, 3-[4-[[[3-[(1,4,5,6-tetrahydropyrimidin-2-yl)amino]phenyl]carbonyl]amino]phenyl]propenoic acid, trifluoroacetate salt]",2.18,661
"COc1cc(NC(=O)c2cccc(NC3=NCCCN3)c2)ccc1/C=C/C(=O)O [Example 50, 3-[2-methoxy-4-[[[3-[(1,4,5,6-tetrahydropyrimidin-2-yl)amino]phenyl]carbonyl]amino]phenyl]propenoic acid, trifluoroacetate salt]",0.43,772
"NC(=O)N=C(N)Nc1cccc(C(=O)Nc2ccc(/C=C/C(=O)O)cc2)c1 [Example 52, 3-[4-[[[3-[[amino[(aminocarbonyl)imino)methyl]amino]phenyl]carbonyl]amino]phenyl]propenoic acid, trifluoroacetate salt]",72.5,133
"N=C(N)Nc1cc(C(=O)Nc2ccc(/C=C/C(=O)O)cc2)cc(C(F)(F)F)c1 [Example 53, 3-[4-[[[3-[(aminoiminomethyl)amino]-5-(trifluoromethyl)-phenyl]carbonyl]amino]phenyl]propenoic acid, trifluoroacetate salt]",7.89,232
"N=C(N)Nc1cc(C(=O)Nc2ccc(/C=C/C(=O)O)c(Cl)c2)cc(C(F)(F)F)c1 [Example 54, 3-[4-[[[3-[(aminoiminomethyl)amino]-5-(trifluoromethyl)phenyl]carbonyl]amino]-2-chlorophenyl]propenoic acid, trifluoroacetate salt]",12.5,686
"COc1cc(NC(=O)c2cc(NC(=N)N)cc(C(F)(F)F)c2)ccc1/C=C/C(=O)O [Example 55, 3-[4-[[[3-[(aminoiminomethyl)amino]-5-(trifluoromethyl)phenyl]carbonyl]amino]-2-methoxyphenyl]propenoic acid, trifluoroacetate salt]",3.62,432
"O=C(O)/C=C/c1ccc(NC(=O)c2cccc(NC3=NCCCS3)c2)cc1 [Example 56, 3-[4-[[[3-[(5,6-dihydro-4H-1,3-thiazin-2-yl)amino]phenyl]carbonyl]amino]phenyl]propenoic acid, trifluoroacetate salt]",4.03,656
"Cc1cc(/C=C/C(=O)O)cc(C)c1NC(=O)c1cccc(NC2=NCCCS2)c1 [Example 57, 3-[4-[[[3-[(5,6-dihydro-4H-1,3-thiazin-2-yl)amino]phenyl]carbonyl]amino]3,5-dimethylphenyl]propenoic acid, trifluoroacetate salt]",25.8,12800
"C/C(=C\C(=O)O)c1ccc(NC(=O)c2cccc(NC(=N)N)c2)cc1 [Example 59, 3-[4-[[[3-[(aminoiminomethyl)amino]phenyl]carbonyl]amino]phenyl]-2-butenoicacid, trifluoroacetate salt]",1270,5140
"N=C(N)Nc1cccc(C(=O)Nc2ccc(/C=C(\NC(=O)c3ccccc3)C(=O)O)cc2)c1 [Example 60, 3-[4-[[[3-[(aminoiminomethyl)amino]phenyl]carbonyl]amino]phenyl]-2-[(phenylcarbonyl)amino]propenoic acid, trifluoroacetate salt]",67.3,440
"O=C(O)/C=C/c1cccc(CNC(=O)c2cccc(NC3=NCCCN3)c2)c1 [Example 62, 3-[3-[[[[3-[(1,4,5,6-tetrahydropyrimidin-2-yl)amino]phenyl]carbonyl]amino]methyl]phenyl]propenoic acid, monohydrochloride]",2.04,23300
"O=C(O)/C=C/c1cccc(CNC(=O)c2cccc(NC(=O)NCc3ccccc3)c2)c1 [Example 64, 3-[3-[[[[3-[[[(phenylmethyl)amino]carbonyl]amino]phenyl]carbonyl]amino]methyl]phenyl]propenoic acid, trifluoroacetate salt]",2180,16200
